Test results taken from patent US20240425464A1, “Substituted Monohydrazides as Potent Antifungal Agents” (University of Kentucky Research Foundation, priority 2023, published 2024).
In brackets after ≈: the same amount, converted by molar mass. Where two headings read alike, the source gives them in different places.

Tests used:
Type in all cases: cell-based, Candida albicans
[1] = tested on: C. albicans ATCC 10231 (strain A); assay: MIC determination by in vitro antifungal assay (CLSI broth dilution); conditions: strain A = C. albicans ATCC 10231, no visible growth, 48 h at 35° C.
Protocol: (§1) 10 mg/mL stock solutions of compounds 1a-9j were prepared in dimethyl sulfoxide (DMSO) and were stored at −20° C. in the dark. The antifungal agent amphotericin B (AmB) was purchased from VWR (Radnor PA, USA). AmB was dissolved in DMSO at a final concentration of 5 mg/mL and was stored at −20° C., protected from light. Candida albicans American Type Culture Collection (ATCC) 10231 (strain A), C. albicans ATCC 64124 (B), and C. albicans ATCC MYA-2876 (C) were obtained from Utah State University. C. albicans ATCC 90819 (D), C. albicans ATCC MYA-2310 (E), C. albicans ATCC MYA-1237 (F), C. albicans ATCC MYA-1003 (G), Candida glabrata ATCC 2001 (H), Candida krusei ATCC 6258 (I), Candida parapsilosis ATCC 22019 (J), Cryptococcus neoformans ATCC MYA-895 (M), Aspergillus terreus ATCC MYA-3633 (N), and Aspergillus flavus ATCC MYA-3631 (0) were obtained from the American Type Culture Collection (ATCC; Manassas, VA, USA). Aspergillus nidulans ATCC 38163 (P) was obtained from University of Kentucky. Clinically derived Aspergillus fumigatus NRRL 163 (Q), A. fumigatus NRRL 5109 (R), and A. fumigatus NRRL 6113 (S) were obtained from Northern Regional Research Laboratory (NRRL). Candida auris 384 (K), C. auris 390 (L), and fungal strains 381-400 (including 10 C. auris (AR Bank #381-390), 3 Candida duobushaemulonii (AR Bank #391, AR Bank #392, and AR Bank #394), 2 Candida haemulonii (AR Bank #393 and AR Bank #395), 1 Kodameae ohmeri (AR Bank #396), 1 C. krusei (AR Bank #397), 1 Candida lusitaniae (AR Bank #398), and 2 Saccharomyces cerevisiae strains (AR Bank #399 and AR Bank #400)) were part of a larger fungal library from the AR Bank maintained by the Centers for Disease Control and Prevention (CDC; Atlanta, GA, USA). Filamentous fungi and yeasts were cultivated at 35° C. in RPMI 1640 medium (with L-glutamine, without sodium bicarbonate, Sigma-Aldrich, St. Louis, MO) buffered to a pH of 7.0 with 0.165 M morpholinepropanesulfonic acid (MOPS) buffer (Sigma-Aldrich). For cytotoxicity assays, HepG2 and the mouse macrophage cell line J774A.1 were obtained from University of Kentucky. The human embryonic kidney cell line, HEK-293, was bought from the ATCC. Mammalian cells were grown in Dulbecco's Modified Eagle's Medium (DMEM) (from VWR) with 10% fetal bovine serum (FBS) (from VWR) and 1% Pen/Strep (from ATCC). Cell lines were cultured at 37° C. with 5% CO2 and passaged by trypsinization with 0.05% trypsin: 0.53 mM EDTA (from Sigma-Aldrich).
(§2) The MIC values of compounds 1a-9j against yeast cells (strains A-P and 381-400) were determined in 96-well plates as described in the CLSI documents M27-A3 and M38-A2 with minor modifications.^2 A single colony of freshly prepared yeast cells was used to inoculate 5 mL of yeast extract peptone dextrose (YPD) broth prior to incubation overnight with shaking at 200 rpm at 35° C. From the actively growing yeast culture, 100 µL were then transferred to 900 μL of RPMI 1640 medium and re-adjusted to achieve OD600 of 0.12 (˜1×10^6 CFU/mL). The cell suspension was further diluted to achieve 1:100 in RPMI 1640 medium. 100 μL of cells were added to the wells of a 96-well microtiter plates that contained 100 µL of the compound solution to obtain concentrations of 0.06-31.3 μg/mL of compounds 1a-9j or AmB prior to incubation for 48 h at 35° C. […]

[2] = tested on: C. albicans ATCC 64124 (B); assay: MIC determination by in vitro antifungal assay
Protocol: as §1, §2

[3] = tested on: C. albicans ATCC 90819 (D); assay: MIC determination by in vitro antifungal assay
Protocol: as §1, §2

[4] = tested on: C. albicans ATCC MYA-1003 (G); assay: MIC determination by in vitro antifungal assay; conditions: strain G = C. albicans ATCC MYA-1063(R) (footnote), MYA-1003 in text
Protocol: as §1, §2

[5] = tested on: C. albicans ATCC MYA-1237 (F); assay: MIC determination by in vitro antifungal assay; conditions: strain F = C. albicans ATCC MYA-1237(R)
Protocol: as §1, §2

[6] = tested on: C. albicans ATCC MYA-2310 (E); assay: MIC determination by in vitro antifungal assay; conditions: strain E = C. albicans ATCC MYA-2310
Protocol: as §1, §2

[7] = tested on: C. albicans ATCC MYA-2876 (C); assay: MIC determination by in vitro antifungal assay; conditions: strain C = C. albicans ATCC MYA-2876(S)
Protocol: as §1, §2

[8] = Candida albicans, ATCC10231, 48 h, read-out: MIC
[9] = Candida albicans, ATCC64124, strain B = C. albicans ATCC 64124, read-out: MIC
[10] = Candida albicans, ATCC90819, strain D = C. albicans ATCC 90819(R), read-out: MIC
[11] = Candida albicans, read-out: MIC
[12] = strain B = C. albicans ATCC 64124
[13] = strain D = C. albicans ATCC 90819(R)

Row | SMILES | MIC [1, 8] [µg/mL] | MIC [2, 9] [µg/mL] | MIC [3, 10] [µg/mL] | MIC [4, 11] [µg/mL] | MIC [5, 11] [µg/mL] | MIC [6, 11] [µg/mL] | MIC [7, 11] [µg/mL] | MIC [1] [μg/mL^−1] | MIC [2, 12] [μg/mL^−1] | MIC [3, 13] [μg/mL^−1] | MIC [4] [μg/mL^−1] | MIC [5] [μg/mL^−1] | MIC [6] [μg/mL^−1] | MIC [7] [μg/mL^−1]
1 | O=C(NNc1ccc(F)cc1)c1cccc(F)n1 [Compound 5d] | 0.24 (≈ 0.963 µM) | 0.98 (≈ 3.93 µM) | 1.95 (≈ 7.82 µM) | 0.98 (≈ 3.93 µM) | 1.95 (≈ 7.82 µM) | 3.9 (≈ 15.6 µM) | 1.95 (≈ 7.82 µM) |  |  |  |  |  |  | 
2 | O=C(NNc1ccc(Cl)cc1)c1cccc(F)n1 [Compound 5e] |  |  |  |  |  |  |  | 1.95 | 1.95 | 3.9 | 0.98 | 0.98 | 1.95 | 1.95
3 | COc1ccc(NNC(=O)c2cccc(F)n2)cc1 [Compound 5f] | 0.24 (≈ 0.919 µM) | 1.95 (≈ 7.46 µM) | 1.95 (≈ 7.46 µM) | 0.98 (≈ 3.75 µM) | 0.98 (≈ 3.75 µM) | 0.98 (≈ 3.75 µM) | 0.98 (≈ 3.75 µM) |  |  |  |  |  |  | 
4 | O=C(NNc1ccc(F)cc1F)c1cccc(F)n1 [Compound 5g] | 0.98 (≈ 3.67 µM) | 1.95 (≈ 7.3 µM) | 3.9 (≈ 14.6 µM) | 0.98 (≈ 3.67 µM) | 1.95 (≈ 7.3 µM) | 1.95 (≈ 7.3 µM) | 1.95 (≈ 7.3 µM) |  |  |  |  |  |  | 
5 | O=C(NNc1cccc(F)c1)c1cccc(Br)n1 [Compound 6a] |  |  |  |  |  |  |  | 0.49 | 1.95 | 7.8 | 3.9 | 3.9 | 3.9 | 1.95
6 | O=C(NNc1ccc(F)cc1)c1cccc(Br)n1 [Compound 6d] | 0.98 (≈ 3.16 µM) | 1.95 (≈ 6.29 µM) | 3.9 (≈ 12.6 µM) | 1.95 (≈ 6.29 µM) | 3.9 (≈ 12.6 µM) | 3.9 (≈ 12.6 µM) | 3.9 (≈ 12.6 µM) |  |  |  |  |  |  | 
7 | COc1ccc(NNC(=O)c2cccc(Br)n2)cc1 [Compound 6f] | 1.95 (≈ 6.05 µM) | 3.9 (≈ 12.1 µM) | 3.9 (≈ 12.1 µM) | 3.9 (≈ 12.1 µM) | 0.98 (≈ 3.04 µM) | 3.9 (≈ 12.1 µM) | 1.95 (≈ 6.05 µM) |  |  |  |  |  |  | 
8 | O=C(NNc1cccc(F)c1)c1ncc(F)cc1F [Compound 7a] |  |  |  |  |  |  |  | 0.24 | 0.98 | 3.9 | 1.95 | 3.9 | 1.95 | 1.95
9 | COc1cccc(NNC(=O)c2ncc(F)cc2F)c1 [Compound 7c] | 0.98 (≈ 3.51 µM) | 1.95 (≈ 6.98 µM) | 7.8 (≈ 27.9 µM) | 1.95 (≈ 6.98 µM) | 3.9 (≈ 14 µM) | 3.9 (≈ 14 µM) | 3.9 (≈ 14 µM) |  |  |  |  |  |  | 
10 | O=C(NNc1ccc(F)cc1)c1ncc(F)cc1F [Compound 7d] | 0.98 (≈ 3.67 µM) | 1.95 (≈ 7.3 µM) | 1.95 (≈ 7.3 µM) | 0.98 (≈ 3.67 µM) | 1.95 (≈ 7.3 µM) | 3.9 (≈ 14.6 µM) | 1.95 (≈ 7.3 µM) |  |  |  |  |  |  | 
11 | O=C(NNc1ccc(Cl)cc1)c1ncc(F)cc1F [Compound 7e] |  |  |  |  |  |  |  | 3.9 | 3.9 | 7.8 | 1.95 | 0.49 | 1.95 | 3.9
12 | COc1ccc(NNC(=O)c2ncc(F)cc2F)cc1 [Compound 7f] | 1.95 (≈ 6.98 µM) | 1.95 (≈ 6.98 µM) | 1.95 (≈ 6.98 µM) | 0.98 (≈ 3.51 µM) | 0.98 (≈ 3.51 µM) | 1.95 (≈ 6.98 µM) | 1.95 (≈ 6.98 µM) |  |  |  |  |  |  | 
